The target in assay [1] is T1, aryl hydrocarbon receptor (AhR) (Homo sapiens, UniProt P35869).
T1 sequence (P35869 11-848): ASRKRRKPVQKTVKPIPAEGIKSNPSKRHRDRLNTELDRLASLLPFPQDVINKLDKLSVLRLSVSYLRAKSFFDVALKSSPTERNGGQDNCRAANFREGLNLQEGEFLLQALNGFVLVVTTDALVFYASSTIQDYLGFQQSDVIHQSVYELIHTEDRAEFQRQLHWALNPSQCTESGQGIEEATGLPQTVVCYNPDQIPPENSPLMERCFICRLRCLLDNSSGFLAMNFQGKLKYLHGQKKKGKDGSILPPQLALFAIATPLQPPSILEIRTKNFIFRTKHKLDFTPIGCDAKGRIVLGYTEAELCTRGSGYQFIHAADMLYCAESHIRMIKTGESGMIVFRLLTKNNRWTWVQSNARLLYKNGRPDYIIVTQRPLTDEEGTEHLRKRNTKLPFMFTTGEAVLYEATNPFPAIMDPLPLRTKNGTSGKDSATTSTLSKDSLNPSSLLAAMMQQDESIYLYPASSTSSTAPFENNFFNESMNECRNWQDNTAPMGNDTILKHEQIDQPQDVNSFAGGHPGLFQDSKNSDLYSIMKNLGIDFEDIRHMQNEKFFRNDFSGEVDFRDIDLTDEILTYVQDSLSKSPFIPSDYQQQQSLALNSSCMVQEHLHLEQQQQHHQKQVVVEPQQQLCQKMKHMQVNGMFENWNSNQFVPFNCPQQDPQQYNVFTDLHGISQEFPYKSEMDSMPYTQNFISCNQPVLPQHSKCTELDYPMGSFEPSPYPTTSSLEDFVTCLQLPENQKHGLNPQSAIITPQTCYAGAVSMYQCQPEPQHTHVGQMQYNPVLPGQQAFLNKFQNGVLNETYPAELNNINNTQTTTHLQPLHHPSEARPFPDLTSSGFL
Description: AhR activation.

The subject of assay [2] is PXR target gene transcription (Mdr-1). The assay can be described thus: PXR target gene (Mdr-1) qPCR in jejunum apical enterocytes after oral IPA. The assay is classed as in vivo, mice. The note with it: oral IPA 20 mg/kg; Mdr-1, jejunum apical enterocytes.
Description: 2.0 μg of total RNA extracted from pooled apical enterocytes with TRIzolR (Invitrogen), were reverse transcribed with random hexamer primers and SuperScript™ III-RT enzyme (Invitrogen). Quantitative PCR (qPCR) reactions using TaqMan universal PCR master mix and TaqMan probes containing FAM as the 5′ reporter fluorochrome and tetramethylrhodamine (MGB) as the 3′ quencher fluorochrome, were performed in triplicate for each sample and analyzed on the ABI Prism 7900HT system. […] Controls include RT-minus RNA samples. PCR reaction conditions for all assays were set at 50° C. for 2 minutes, 95° C. for 10 minutes, followed by 40 cycles of amplification (95° C. for 15 seconds then 60° C. for 1 minute). Experiments were performed at least two independent times each in triplicates.
Assay [3] addresses T2, mPXR ligand binding domain (Mus musculus, UniProt O54915).
T2 construct: made in house
T2 sequence (O54915 143-430 limits assumed): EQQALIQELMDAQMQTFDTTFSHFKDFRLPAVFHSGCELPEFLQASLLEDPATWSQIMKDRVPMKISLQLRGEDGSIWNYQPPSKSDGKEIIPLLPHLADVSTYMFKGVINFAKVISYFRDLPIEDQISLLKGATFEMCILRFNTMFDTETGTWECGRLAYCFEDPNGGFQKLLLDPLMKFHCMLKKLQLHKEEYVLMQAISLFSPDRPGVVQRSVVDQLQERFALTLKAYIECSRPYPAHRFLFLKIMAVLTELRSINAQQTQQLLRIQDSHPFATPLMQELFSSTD
Description: LanthaScreen TR-FRET PXR competitive binding assay, mPXR LBD. To be noted: read-out: EC50 for ligand displacement in mPXR. The protocol: A LanthaScreen TR-FRET PXR Competitive Binding Assay was conducted according to the manufacturer's protocol (Invitrogen) as previously published (14). Briefly, serial dilutions of indole 3-propionic acid (diluted in TR-FRET PXR Assay Buffer, Invitrogen) were dispensed into triplicate wells of a black, non-treated 384 well plate (Corning Life Sciences). Subsequently, 5 μl of Fluormone PXR Green was added into each well. Finally, 5 μl of a master mix containing hPXR ligand binding domain (LBD), terbium labeled anti-glutathione S transferase (final concentration 10 nM) and dithiothreitol (final concentration 0.05 mM) was added into each well. For mPXR ligand binding domain, GST tagged mPXR LBD was purified using Glutathione Sepharose 4 Fast Flow beads (GE Health Care) in Poly-Prep Chromatography columns (Bio-Rad). hPXR LBD of the assay kit was replaced with the similar concentrations of mPXR LBD. The content was mixed briefly (10 s) and incubated in dark at room temperature for 1 h. TR-FRET was measured using SpectraMaxR M5 microplate reader (Molecular Devices) with the excitation wavelength of 340 nm and emission wavelengths of 520 and 495 nm. TR-FRET ratio was calculated by dividing the emission signal at 520 nm by emission signal at 495 nm. Data are expressed as percentage TR-FRET ratio. Error bars represent s.e.m of duplicate wells from two separate experiments.

The test system of assay [4] is gut permeability to FITC-dextran. The assay can be described thus: In vivo FITC-dextran gut permeability assay in germ free mice after oral IPA. The note with it: germ free (SWGF) mice; oral IPA 20 mg/kg, four consecutive days. The protocol: Age and sex-matched mice were orally administered with 0.6 mg/g body weight of an 80 mg/ml solution of FITC-dextran (FD4, Sigma). 5 h later, retro-orbital blood was collected from each mouse. Serum was prepared by allowing the blood to clot by leaving it undisturbed overnight at 4° C. and then subsequently centrifuged at 3000 rpm for 20 minutes. Dilutions of FITC-dextran in PBS were used as a standard curve. Absorption of 50 μl serum was measured at microplate reader with excitation and emission filters set at 490 and 530 nm, respectively (38).

For the molecule `O=C(O)CCc1c[nH]c2ccccc12` [IPA, indole-3-propionic acid], in assay [1], the “Activation of AhR” value was “no activation”. Also, the “PXR target gene transcription in vivo” value in assay [2] is “induces PXR target gene transcription in vivo”. Moreover, in assay [3], the EC50 came out at 1100 nM. Moreover, the “Gut permeability to FITC-dextran” value in assay [4] is reported as “decreased gut permeability to FITC-dextran”.

The values are drawn from patent publication US9925222B2, “Gut barrier dysfunction treatment and prevention” (ALBERT EINSTEIN COLLEGE OF MEDICINE OF YESHIVA UNIVERSITY, priority 2012, dated 2018).
